In patent publication US20080051401A1, “2,4,6-Trisubstituted Pyrimidines as Phosphotidylinositol (Pi) 3-Kinase Inhibitors and Their Use in the Treatment of Cancer” (priority 2004, published 2008):

How the values were obtained:
[1] = molecular target: T1, p110α Type Ia human PI3K (Homo sapiens, UniProt P42336); assay: In vitro enzyme assay (AlphaScreen), Test (a); type: biochemical; details: recombinant enzyme, PI(4,5)P2 substrate, ATP 4 μM, read-out: IC50 versus p110α Type Ia human PI3K
T1 construct: full length DNA of each of the p110α, p110β and p110δ Type Ia human PI3K p110 isoforms; 6-His; made in house
From the text: (a) In Vitro Enzyme Assay
The assay used AlphaScreen technology (Gray et al., Analytical Biochemistry, 2003, 313: 234-245) to determine the ability of test compounds to inhibit phosphorylation by recombinant Type I PI3K enzymes of the lipid PI(4,5)P2.
DNA fragments encoding human PI3K catalytic and regulatory subunits were isolated from cDNA libraries using standard molecular biology and PCR cloning techniques. The selected DNA fragments were used to generate baculovirus expression vectors. In particular, full length DNA of each of the p110α, p110β and p110δ Type Ia human PI3K p110 isoforms (EMBL Accession Nos. HSU79143, S67334, Y10055 for p110α, p110β and p110δ respectively) were sub-cloned into a pDEST10 vector (Invitrogen Limited, Fountain drive, Paisley, UK). The vector is a Gateway-adapted version of Fastbac1 containing a 6-His epitope tag. A truncated form of Type Ib human PI3K p110γ isoform corresponding to amino acid residues 144-1102 (EMBL Accession No. X8336A) and the full length human p85α regulatory subunit (EMBL Accession No. HSP13KIN) were also sub-cloned into pFastBac1 vector containing a 6-His epitope tag. The Type Ia p110 constructs were co-expressed with the p85α regulatory subunit. Following expression in the baculovirus system using standard baculovirus expression techniques, expressed proteins were purified using the His epitope tag using standard purification techniques.
DNA corresponding to amino acids 263 to 380 of human Grp1 PH domain was isolated from a cDNA library using standard molecular biology and PCR cloning techniques. […]
Biotinylated-DiC8-PI(3,4,5)P3 (50 nM; Cell Signals Inc., Catalogue No. 107), recombinant purified GST-Grp1 PH protein (2.5 nM) and AlphaScreen Anti-GST donor and acceptor beads (100 ng; Packard Bioscience Limited, Station Road, Pangbourne, Berkshire, UK, Catalogue No. 6760603M) were added and the assay plates were left for about 5 to 20 hours at ambient temperature in the dark. The resultant signals arising from laser light excitation at 680 nm were read using a Packard AlphaQuest instrument. […]

[2] = system: phosphorylation of Serine 473 in Akt in MDA-MB-468 human breast adenocarcinoma cell line; assay: In vitro phospho-Ser473 Akt assay, Test (b); type: cell-based; details: MDA-MB-468 cells, 2 hours incubation, read-out: IC50, inhibition of phosphorylation of Serine 473 in Akt
Method: (b) In Vitro Phospho-Ser473 Akt Assay
This assay determines the ability of test compounds to inhibit phosphorylation of Serine 473 in Akt as assessed using Acumen Explorer technology (Acumen Bioscience Limited), a plate reader that can be used to rapidly quantitate features of images generated by laser-scanning.
A MDA-MB-468 human breast adenocarcinoma cell line (LGC Promochem, Teddington, Middlesex, UK, Catalogue No. HTB-132) was routinely maintained at 37° C. with 5% CO2 up to a confluency of 70-90% in Dulbecco's modified Eagle's growth medium (DMEM; Invitrogen Limited, Paisley, UK Catalogue No. 41966-029) containing 10% heat-inactivated foetal calf serum (FCS; Sigma, Poole, Dorset, UK, Catalogue No. F0392) and 1% L-glutamine (Gibco, Catalogue No. 25030-024).
For the assay, the cells were detached from the culture flask using ‘Accutase’ (Innovative Cell Technologies Inc., San Diego, Calif., USA; Catalogue No. AT104) using standard tissue culture methods and resuspended in media to give 1.7×10^5 cells per ml. Aliquots (90 μl) were seeded into each of the inner 60 wells of a black Packard 96 well plate (PerkinElmer, Boston, Mass., USA; Catalogue No. 6005182) to give a density of ˜15000 cells per well. Aliquots (90 μl) of culture media were placed in the outer wells to prevent edge effects. The cells were incubated overnight at 37° C. with 5% CO2 to allow them to adhere.
On day 2, the cells were treated with test compounds and incubated for 2 hours at 37° C. with 5% CO2. Test compounds were prepared as 10mM stock solutions in DMSO and serially diluted as required with growth media to give a range of concentrations that were 10-fold the required final test concentrations. Aliquots (10 μl) of each compound dilution were placed in a well (in triplicate) to give the final required concentrations. […]
All subsequent aspiration and wash steps were carried out using a Tecan 96 well plate washer (aspiration speed 10 mm/sec). […] An aliquot of PBS (50 μl) was added to each well and the plates were sealed with black plate sealers and the fluorescence signal was detected and analysed. […]

[3] = system: MDA-MB-468 human breast adenocarcinoma cell line; assay: In vitro MDA-MB-468 human breast adenocarcinoma proliferation assay, Test (c); type: cell-based; details: BrdU incorporation, 48 hours incubation, read-out: IC50, inhibition of MDA-MB-468 cell growth
From the text: (c) In Vitro MDA-MB-468 Human Breast Adenocarcinoma Proliferation Assay
This assay determines the ability of test compounds to inhibit cell proliferation as assessed using Cellomics Arrayscan technology. A MDA-MB-468 human breast adenocarcinoma cell line (LGC Promochem, Catalogue No. HTB-132) was routinely maintained as described in Biological Assay (b) hereinbefore.
For the proliferation assay, the cells were detached from the culture flask using Accutase and seeded into the inner 60 wells of a black Packard 96 well plate at a density of 8000 cells per well in 100 μl of complete growth media. The outer wells contained 100 μl of sterile PBS. The cells were incubated overnight at 37° C. with 5% CO2 to allow them to adhere.
On day 2, the cells were treated with test compounds and incubated for 48 hours at 37° C. with 5% CO2. […]
BrdU incorporation was detected by incubation for 1 hour at ambient temperature with mouse anti-BrdU antibody (50 μl; Caltag, Burlingame, Calif., US; Catalogue No. MD5200) that was diluted 1:40 in PBS containing 1% BSA and 0.05% Tween-20. […] Subsequently, PBS (100 μl) was added to each well and the plates were analysed using a Cellomics array scan to assess total cell number and number of BrdU positive cells.
Fluorescence dose response data obtained with each compound were analysed and the degree of inhibition of MDA-MB-468 cell growth was expressed as an IC50 value.

T1 sequence (P42336 whole entry, canonical isoform): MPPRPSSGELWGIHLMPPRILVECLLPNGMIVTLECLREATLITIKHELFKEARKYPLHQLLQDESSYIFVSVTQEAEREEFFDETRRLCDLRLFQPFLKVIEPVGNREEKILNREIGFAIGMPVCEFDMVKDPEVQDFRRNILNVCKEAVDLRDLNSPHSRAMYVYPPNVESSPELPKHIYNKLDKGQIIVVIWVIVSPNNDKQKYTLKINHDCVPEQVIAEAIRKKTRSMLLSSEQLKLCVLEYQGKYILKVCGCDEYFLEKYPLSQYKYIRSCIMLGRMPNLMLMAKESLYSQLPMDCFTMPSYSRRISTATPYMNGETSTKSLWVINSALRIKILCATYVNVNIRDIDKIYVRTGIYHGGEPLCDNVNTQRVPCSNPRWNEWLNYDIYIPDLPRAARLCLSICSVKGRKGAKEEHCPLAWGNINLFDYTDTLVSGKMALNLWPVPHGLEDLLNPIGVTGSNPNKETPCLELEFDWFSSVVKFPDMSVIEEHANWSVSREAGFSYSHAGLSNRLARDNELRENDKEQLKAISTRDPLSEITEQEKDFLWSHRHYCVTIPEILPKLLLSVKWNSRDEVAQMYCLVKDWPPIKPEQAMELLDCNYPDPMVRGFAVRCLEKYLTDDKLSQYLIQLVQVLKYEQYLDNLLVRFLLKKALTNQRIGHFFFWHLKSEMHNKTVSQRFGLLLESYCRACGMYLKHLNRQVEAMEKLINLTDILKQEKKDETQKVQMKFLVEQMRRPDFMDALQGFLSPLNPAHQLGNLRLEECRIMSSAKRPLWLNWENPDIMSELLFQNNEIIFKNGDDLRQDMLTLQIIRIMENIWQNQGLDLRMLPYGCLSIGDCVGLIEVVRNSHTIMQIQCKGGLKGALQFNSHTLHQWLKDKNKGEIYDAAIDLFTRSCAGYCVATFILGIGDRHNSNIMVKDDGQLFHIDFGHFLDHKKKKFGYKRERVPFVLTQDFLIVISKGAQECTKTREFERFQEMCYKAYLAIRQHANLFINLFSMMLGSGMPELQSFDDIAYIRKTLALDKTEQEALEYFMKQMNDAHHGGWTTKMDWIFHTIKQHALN
T1 sequence (P27986 whole entry partner, canonical isoform): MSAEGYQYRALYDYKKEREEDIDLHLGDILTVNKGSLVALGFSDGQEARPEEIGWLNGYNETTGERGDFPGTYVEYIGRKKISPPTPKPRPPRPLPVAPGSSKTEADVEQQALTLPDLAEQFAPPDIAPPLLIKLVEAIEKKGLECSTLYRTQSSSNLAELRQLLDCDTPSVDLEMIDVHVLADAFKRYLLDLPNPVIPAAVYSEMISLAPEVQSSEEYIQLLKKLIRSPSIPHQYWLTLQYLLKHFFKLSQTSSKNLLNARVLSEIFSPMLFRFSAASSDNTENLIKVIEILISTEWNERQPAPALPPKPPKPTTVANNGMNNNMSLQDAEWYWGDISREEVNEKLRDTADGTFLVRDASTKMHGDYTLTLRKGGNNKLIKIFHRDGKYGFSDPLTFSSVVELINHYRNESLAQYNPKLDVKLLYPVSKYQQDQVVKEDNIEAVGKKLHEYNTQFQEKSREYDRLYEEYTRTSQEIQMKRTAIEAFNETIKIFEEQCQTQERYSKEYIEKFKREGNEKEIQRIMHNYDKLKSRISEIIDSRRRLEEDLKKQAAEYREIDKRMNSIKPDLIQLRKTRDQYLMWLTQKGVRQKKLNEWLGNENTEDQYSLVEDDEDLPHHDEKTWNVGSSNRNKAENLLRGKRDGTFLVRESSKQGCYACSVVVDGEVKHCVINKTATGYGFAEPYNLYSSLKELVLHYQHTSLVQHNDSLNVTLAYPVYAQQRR

O=C(Nc1cccc(-c2cc(N3CCOCC3)nc(-c3cccc(CO)c3)n2)c1)N1CCNCC1 [Example 10, 2-(3-hydroxymethylphenyl)-6-morpholino-4-(3-piperazin-1-ylcarbonylaminophenyl)pyrimidine]
IC50 [1]: ~300 nM
IC50 [2]: ~500 nM

O=C(Nc1cccc(-c2cc(N3CCOCC3)nc(-c3cccc(O)c3)n2)c1)C1CCCNC1 (stereo not shown) [Example 6, 2-(3-hydroxyphenyl)-6-morpholino-4-(3-piperidin-3-ylcarbonylaminophenyl)pyrimidine]
IC50 [1]: ~100 nM
IC50 [2]: ~300 nM

O=C(Nc1cccc(-c2cc(N3CCOCC3)nc(-c3cccc(CO)c3)n2)c1)C1CCNCC1 [Example 1, 2-(3-hydroxymethylphenyl)-6-morpholino-4-(3-piperidin-4-ylcarbonylaminophenyl)pyrimidine]
IC50 [1]: ~100 nM
IC50 [2]: ~5000 nM
IC50 [3]: ~8000 nM
